The results in this text go back to ChEMBL document CHEMBL4825677, “Design, synthesis and biological evaluation of novel benzofuran derivatives as potent LSD1 inhibitors” (Eur J Med Chem, 2021).

One data set concerns the target T1, Cytochrome P450 1A2 (Homo sapiens, UniProt P05177).
T1 sequence (P05177 whole entry): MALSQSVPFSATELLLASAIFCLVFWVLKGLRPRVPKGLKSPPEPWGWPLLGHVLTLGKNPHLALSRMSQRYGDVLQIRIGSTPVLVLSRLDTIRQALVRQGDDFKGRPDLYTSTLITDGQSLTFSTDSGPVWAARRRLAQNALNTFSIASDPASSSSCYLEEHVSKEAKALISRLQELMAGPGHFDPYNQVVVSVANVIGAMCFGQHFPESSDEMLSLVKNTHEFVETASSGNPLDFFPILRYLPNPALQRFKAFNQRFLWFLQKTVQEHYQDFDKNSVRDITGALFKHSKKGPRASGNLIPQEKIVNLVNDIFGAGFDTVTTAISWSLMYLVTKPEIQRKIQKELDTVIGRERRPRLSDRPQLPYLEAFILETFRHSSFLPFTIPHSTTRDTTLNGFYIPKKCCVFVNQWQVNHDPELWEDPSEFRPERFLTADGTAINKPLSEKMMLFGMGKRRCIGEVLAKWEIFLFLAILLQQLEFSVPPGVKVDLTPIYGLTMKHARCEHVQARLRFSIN
Put plainly: Inhibition of CYP1A2 in human liver microsomes at 10 uM by LC-MS/MS analysis. The data set is classed as ADME. In general terms: Microsomes from liver hold many membrane-bound enzymes, among them those of drug oxidation.

Data set [1] in a line: Metabolic stability in human liver microsomes assessed as half-life by LC-MS/MS analysis. The data set is classed as ADME, Microsome.
For another data set, the target named is Cytochrome P450 2D6 (Homo sapiens, UniProt P10635). Put plainly: Inhibition of CYP2D6 in human liver microsomes at 10 uM by LC-MS/MS analysis. The class given is ADME.
The target of another data set is Cytochrome P450 3A4 (Homo sapiens, UniProt P08684). Briefly: Inhibition of CYP3A4 in human liver microsomes at 10 uM by LC-MS/MS analysis. The class given is ADME.
The target of a further data set is Cytochrome P450 2C19 (Homo sapiens, UniProt P33261). Briefly: Inhibition of CYP2C19 in human liver microsomes at 10 uM by LC-MS/MS analysis. The data set is classed as ADME.
A short description of data set [2]: Metabolic stability in human liver microsome assessed as intrinsic clearance by LC-MS/MS analysis. The data set is classed as ADME. Conditions: liver microsomes, read-out: CLH.
The subject of another data set is THP-1. Put plainly: cells. Conditions: Homo sapiens, THP-1, 72 h.
Data set [3] in a line: Metabolic stability in human liver assessed as intrinsic clearance by LC-MS/MS analysis. The class given is ADME, tissue-based. Particulars: read-out: CLH.
In another data set the test system is MCF7. Put plainly: cells. Particulars: Homo sapiens, MCF7, 72 h.
Data set [4] concerns MGC-803. Put plainly: cells. Conditions: Homo sapiens, MGC-803, 72 h.
Description: Antiproliferative activity against human MGC-803 cells assessed as reduction in cell viability incubated for 72 hrs by CCK8 assay
Data set [5] deals with NCI-H460. Briefly: cells. Conditions: Homo sapiens, NCI-H460, 72 h.
Description: Antiproliferative activity against human NCI-H460 cells assessed as reduction in cell viability incubated for 72 hrs by CCK8 assay
A short description of data set [6]: Microsomal stability in human liver microsomes assessed as parent compound remaining after 60 mins in presence of NADPH regenerating system by LC-MS/MS analysis. The class given is ADME, Microsome. Conditions: read-out: Stabilty.
Data set [7] has as its target T2, Amine oxidase [flavin-containing] B (Homo sapiens, UniProt P27338).
T2 sequence (P27338 whole entry): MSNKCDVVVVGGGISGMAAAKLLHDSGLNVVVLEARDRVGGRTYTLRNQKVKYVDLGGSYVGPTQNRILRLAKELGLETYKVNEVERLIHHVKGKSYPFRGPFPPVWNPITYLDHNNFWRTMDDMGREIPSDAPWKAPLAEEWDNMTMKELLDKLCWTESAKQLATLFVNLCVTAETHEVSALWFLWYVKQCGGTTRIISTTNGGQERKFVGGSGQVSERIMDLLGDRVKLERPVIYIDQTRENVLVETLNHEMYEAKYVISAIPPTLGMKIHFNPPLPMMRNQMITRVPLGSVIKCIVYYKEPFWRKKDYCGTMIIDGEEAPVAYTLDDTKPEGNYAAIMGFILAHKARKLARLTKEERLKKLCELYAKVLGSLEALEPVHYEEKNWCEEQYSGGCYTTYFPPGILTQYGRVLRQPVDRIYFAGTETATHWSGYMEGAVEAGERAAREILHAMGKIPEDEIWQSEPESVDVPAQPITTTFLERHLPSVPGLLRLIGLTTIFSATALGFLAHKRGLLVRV
Put plainly: Inhibition of N-terminal FLAG-tagged human recombinant MAO-B expressed in baculovirus-infected Sf9 cells by […]. A general note: A flow cytometer gives signals particle by particle.

A short description of data set [8]: Microsomal stability in human liver microsomes assessed as parent compound remaining after 60 mins in absence of NADPH regenerating system by LC-MS/MS analysis. The class given is ADME, Microsome. Conditions: read-out: Stabilty.
For another data set, the target named is Cytochrome P450 2C9 (Homo sapiens, UniProt P11712). Put plainly: Inhibition of CYP2C9 in human liver microsomes at 10 uM by LC-MS/MS analysis. The class given is ADME.
The subject of a further data set is A549. Briefly: cells. Particulars: Homo sapiens, A549, 72 h.
The next data set deals with THLE-2. Briefly: cells. Particulars: Homo sapiens, THLE-2, 72 h.
Data set [9] concerns the target T3, Amine oxidase [flavin-containing] A (Homo sapiens, UniProt P21397).
T3 sequence (P21397 whole entry): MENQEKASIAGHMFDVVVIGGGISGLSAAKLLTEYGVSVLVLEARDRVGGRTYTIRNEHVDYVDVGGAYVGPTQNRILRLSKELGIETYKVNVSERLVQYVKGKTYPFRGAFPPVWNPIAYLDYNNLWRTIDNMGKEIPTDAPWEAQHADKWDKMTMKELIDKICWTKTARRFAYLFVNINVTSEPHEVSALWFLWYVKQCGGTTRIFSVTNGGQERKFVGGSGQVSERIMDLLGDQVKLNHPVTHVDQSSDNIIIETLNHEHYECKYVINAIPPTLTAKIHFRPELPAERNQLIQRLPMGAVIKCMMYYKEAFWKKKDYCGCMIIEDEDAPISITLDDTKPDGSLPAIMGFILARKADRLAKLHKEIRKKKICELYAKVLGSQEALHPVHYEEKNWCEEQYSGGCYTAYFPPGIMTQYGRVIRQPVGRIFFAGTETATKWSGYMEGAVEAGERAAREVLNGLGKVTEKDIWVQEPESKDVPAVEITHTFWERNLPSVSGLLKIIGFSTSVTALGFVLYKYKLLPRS
Put plainly: Inhibition of N-terminal FLAG-tagged human recombinant MAO-A expressed in baculovirus-infected Sf9 cells by […].

Data set [10] relates to MGC-803. Briefly: Antiproliferative activity against human MGC-803 cells assessed as inhibition of cell growth by MTT assay. The data set is classed as functional, cell-based.
Data set [11] deals with Lysine-specific histone demethylase 1A (Homo sapiens, UniProt O60341). Briefly: Inhibition of human recombinant LSD1 by horseradish peroxidase-coupled fluorometric assay.
The test system of data set [12] is NCI-H460. Put plainly: Induction of apoptosis in human NCI-H460 cells assessed as early apoptotic cells at 2 uM incubated for 48 hrs by AnnexinV-FITC/propidium iodide staining based flow cytometric analysis (reference value: 2.22%). The data set is classed as functional.
The test system of data set [13] is NCI-H460. Briefly: Induction of apoptosis in human NCI-H460 cells assessed as late apoptotic cells at 1 uM incubated for 48 hrs by AnnexinV-FITC/propidium iodide staining based flow cytometric analysis (reference value: 1.36%). The class given is functional.
In data set [14] the test system is NCI-H460. Put plainly: Induction of apoptosis in human NCI-H460 cells assessed as early apoptotic cells at 1 uM incubated for 48 hrs by AnnexinV-FITC/propidium iodide staining based flow cytometric analysis (reference value: 2.22%). The class given is functional.
Data set [15] concerns NCI-H460. Put plainly: Inhibition of cell migration in human NCI-H460 assessed as reduction in cell migration at 0.3 to 1.2 uM by wound healing assay. The data set is classed as functional, cell-based. Conditions: dose 0.3-1.2 µM, time 24-48 hrs, TDE = time-dependent effect.
Data set [16] concerns NCI-H460. Put plainly: Induction of apoptosis in human NCI-H460 cells assessed as late apoptotic cells at 2 uM incubated for 48 hrs by AnnexinV-FITC/propidium iodide staining based flow cytometric analysis (reference value: 1.36%). The data set is classed as functional.
In data set [17] the test system is NCI-H460. Briefly: Inhibition of cell migration in human NCI-H460 cells assessed as reduction in cell migration measured after 48 hrs by wound healing assay. The class given is functional, cell-based. Particulars: dose 0.3-1.2 µM.
Data set [18] has as its system NCI-H460. Briefly: Induction of apoptosis in human NCI-H460 cells assessed as late apoptotic cells at 3 uM incubated for 48 hrs by AnnexinV-FITC/propidium iodide staining based flow cytometric analysis (reference value: 1.36%). The class given is functional.
The subject of data set [19] is NCI-H460. Briefly: Induction of apoptosis in human NCI-H460 cells assessed as early apoptotic cells at 3 uM incubated for 48 hrs by AnnexinV-FITC/propidium iodide staining based flow cytometric analysis (reference value: 2.22%). The class given is functional.

Chain of Cytochrome P450 3A4 (P08684 whole entry): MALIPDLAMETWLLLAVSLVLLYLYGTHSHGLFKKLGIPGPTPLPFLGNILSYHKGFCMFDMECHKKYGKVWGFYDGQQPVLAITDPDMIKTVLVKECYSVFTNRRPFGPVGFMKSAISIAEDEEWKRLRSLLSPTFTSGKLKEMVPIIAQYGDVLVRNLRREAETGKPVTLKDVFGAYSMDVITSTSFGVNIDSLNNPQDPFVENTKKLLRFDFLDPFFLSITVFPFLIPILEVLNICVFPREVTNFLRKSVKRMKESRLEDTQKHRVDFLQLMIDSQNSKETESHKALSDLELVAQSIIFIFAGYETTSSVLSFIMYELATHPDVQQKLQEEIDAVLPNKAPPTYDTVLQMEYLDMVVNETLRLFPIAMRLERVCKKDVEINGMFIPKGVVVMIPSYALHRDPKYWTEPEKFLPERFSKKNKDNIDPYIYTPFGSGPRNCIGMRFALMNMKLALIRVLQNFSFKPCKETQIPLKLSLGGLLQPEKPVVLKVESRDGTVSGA
Chain of Cytochrome P450 2C9 (P11712 whole entry): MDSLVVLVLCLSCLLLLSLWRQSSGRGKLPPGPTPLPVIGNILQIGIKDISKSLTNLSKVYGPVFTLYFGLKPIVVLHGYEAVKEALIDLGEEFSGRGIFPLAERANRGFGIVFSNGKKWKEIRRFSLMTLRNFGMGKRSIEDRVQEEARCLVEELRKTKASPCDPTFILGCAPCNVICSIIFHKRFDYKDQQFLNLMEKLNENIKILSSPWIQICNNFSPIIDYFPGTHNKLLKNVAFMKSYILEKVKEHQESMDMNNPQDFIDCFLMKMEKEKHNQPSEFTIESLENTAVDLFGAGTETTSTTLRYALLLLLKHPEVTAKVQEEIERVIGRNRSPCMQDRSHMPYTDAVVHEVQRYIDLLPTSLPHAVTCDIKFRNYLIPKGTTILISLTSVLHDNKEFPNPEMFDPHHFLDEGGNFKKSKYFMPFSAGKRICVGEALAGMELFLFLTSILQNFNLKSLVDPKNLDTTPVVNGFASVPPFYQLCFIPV
Chain of Cytochrome P450 2D6 (P10635 whole entry): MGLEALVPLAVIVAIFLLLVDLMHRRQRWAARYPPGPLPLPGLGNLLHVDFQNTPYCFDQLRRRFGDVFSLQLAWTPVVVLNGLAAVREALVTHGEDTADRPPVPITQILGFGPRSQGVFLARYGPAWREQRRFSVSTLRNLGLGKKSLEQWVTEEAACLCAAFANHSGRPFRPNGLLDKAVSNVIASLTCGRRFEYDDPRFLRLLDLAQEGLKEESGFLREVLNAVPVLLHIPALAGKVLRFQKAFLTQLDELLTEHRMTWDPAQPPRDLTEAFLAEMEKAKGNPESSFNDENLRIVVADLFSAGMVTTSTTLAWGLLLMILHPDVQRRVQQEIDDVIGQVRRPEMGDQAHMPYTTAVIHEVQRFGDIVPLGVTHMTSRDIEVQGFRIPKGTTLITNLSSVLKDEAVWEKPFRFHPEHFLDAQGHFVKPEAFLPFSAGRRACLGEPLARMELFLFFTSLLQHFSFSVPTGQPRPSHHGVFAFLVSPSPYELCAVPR
Chain of Cytochrome P450 2C19 (P33261 whole entry): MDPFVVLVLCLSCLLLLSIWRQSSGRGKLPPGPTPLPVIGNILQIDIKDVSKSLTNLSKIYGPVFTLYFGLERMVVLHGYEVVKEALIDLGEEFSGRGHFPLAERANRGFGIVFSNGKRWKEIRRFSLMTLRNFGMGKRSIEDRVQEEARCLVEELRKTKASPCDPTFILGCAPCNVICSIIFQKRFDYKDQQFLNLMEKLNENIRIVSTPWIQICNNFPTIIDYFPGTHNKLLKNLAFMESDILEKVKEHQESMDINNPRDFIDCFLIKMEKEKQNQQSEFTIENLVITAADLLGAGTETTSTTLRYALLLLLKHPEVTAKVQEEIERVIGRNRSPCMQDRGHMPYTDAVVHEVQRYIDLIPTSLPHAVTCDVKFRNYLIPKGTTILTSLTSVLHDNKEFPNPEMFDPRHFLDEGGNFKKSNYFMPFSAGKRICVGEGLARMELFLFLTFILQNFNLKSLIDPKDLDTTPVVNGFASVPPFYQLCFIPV
Description for A549: Antiproliferative activity against human A549 cells assessed as reduction in cell viability incubated for 72 hrs by CCK8 assay
Description for MCF7: Antiproliferative activity against human MCF7 cells assessed as reduction in cell viability incubated for 72 hrs by CCK8 assay
Description for THLE-2: Cytotoxicity against human THLE-2 cells assessed as reduction in cell viability incubated for 72 hrs by CCK8 assay
Description for THP-1: Antiproliferative activity against human THP-1 cells assessed as reduction in cell viability incubated for 72 hrs by CCK8 assay

Turning to `CNCCCN(C)Cc1coc2cc(-c3ccc(C)cc3)c(-c3ccc(C#N)cc3)cc12`, the “inhibition (INH)” value at Cytochrome P450 1A2, against Cytochrome P450 2D6, against Cytochrome P450 3A4, against Cytochrome P450 2C19 and at Cytochrome P450 2C9 was “Active” each time. Besides, the half-life (as a rule, the time needed for the level to fall by half in the phase considered) in data set [1] is 0.168 h. Also, the microsomal CLint in data set [2] was determined as 138 µL/min/mg. Also, the IC50 (commonly the concentration that gives 50% inhibition) is 4.87 µM in the data set with THP-1; 3.36 µM with MCF7; 6.47 µM with MGC-803 [4]; 1.87 µM in the data set on NCI-H460 [5]; over 20 µM in data set [7]; 4.08 µM with A549. For the same compound, the IC50 in the data set on THLE-2 is 4.2 µM; in [9], over 20 µM. Besides, in data set [3], the CLint scaled was found to be 124 mL/min/kg. Moreover, the remaining at 1 h is 7.9% in data set [6] and 55.8% in data set [8].
As for `O=C(O)[C@H]1O[C@@H](Oc2cc3oc(-c4ccccc4)cc(=O)c3c(O)c2O)[C@H](O)[C@@H](O)[C@@H]1O` [BAICALIN], the IC50 in the data set on MGC-803 [10] worked out at 8.78 µM.
As for `Cc1ccc(-c2cc3occ(CNC4CCNC4)c3cc2-c2ccc(C#N)cc2)cc1` (stereo not drawn), the “inhibition (INH)” value at Cytochrome P450 1A2, at Cytochrome P450 2D6, at Cytochrome P450 3A4, on Cytochrome P450 2C19 and on Cytochrome P450 2C9 was “Active” each time. The half-life in data set [1] was 1.58 h. For the same compound, the microsomal CLint in data set [2] came to 14.6 µL/min/mg. Besides, the IC50 in the data set on THP-1 was 6 µM; in the data set with MCF7, 3.29 µM; with MGC-803 [4], 5.83 µM; with NCI-H460 [5] it was 2.13 µM; in data set [7], over 20 µM; in the data set on A549 it was 5.5 µM. For the same compound, the concentration for half-maximal inhibition (IC50) in the data set on THLE-2 was 4.76 µM; in data set [9], over 20 µM. Further, the CLint scaled in data set [3] is 13.2 mL/min/kg. In addition, the remaining at 1 h in data set [6] was 65.2%; in data set [8] it was 56.7%.
With `NC1C[C@@H]1c1ccc(-c2cccc(O)c2)cc1` (single isomer, unassigned), the IC50 in data set [11] is 40.5 µM.
In the case of `Cc1ccc(-c2cc3occ(CNC4CCC(N)CC4)c3cc2-c2ccc(C#N)cc2)cc1` (stereo not drawn), the IC50 with THP-1 was 7.06 µM; with MCF7, 4.31 µM; in the data set on MGC-803 [4], 6.27 µM; in the data set with NCI-H460 [5], 1.58 µM; in the data set with A549, 6.33 µM; in the data set on THLE-2, 1.41 µM.
On to `Cc1ccc(-c2ncc(OCC3CCNCC3)cc2-c2ccc(C#N)cc2)cc1`, for which the “inhibition (INH)” value against Cytochrome P450 1A2, on Cytochrome P450 2D6, against Cytochrome P450 3A4, against Cytochrome P450 2C19 and against Cytochrome P450 2C9 was “Active” throughout. Moreover, the half-life in [1] came out at 1.78 h. Also, the Activity amounted to 1.29% in the data set with NCI-H460 [12]; 1.12% in the data set with NCI-H460 [13]; 1.49% with NCI-H460 [14]; 0.9% in the data set with NCI-H460 [16]; 1.21% in the data set with NCI-H460 [18]; 1.6% in the data set on NCI-H460 [19]. Further, the microsomal CLint in data set [2] came to 13 µL/min/mg. For the same compound, the IC50 was 34 µM in the data set with THP-1; 16.9 µM with MCF7; 12.4 µM with MGC-803 [4]; 9.73 µM in the data set on A549; 7.83 µM with THLE-2. Moreover, in data set [3], the CLint scaled was 11.7 mL/min/kg. In addition, the results for the inhibition result in the data set on NCI-H460 [15] and with NCI-H460 [17] were “Tde” and “Dose-Dependent Effect”, respectively. The remaining at 1 h came to 67.5% in [6] and 88.6% in data set [8].
In the case of `Cc1ccc(-c2cc3occ(CNCCN)c3cc2-c2ccc(C#N)cc2)cc1`, the half-inhibitory concentration (IC50) in the data set on THP-1 was determined as 6.68 µM; in the data set with MCF7 it was 5.72 µM; in the data set on MGC-803 [4], 7.55 µM; in the data set on NCI-H460 [5] it was 1.9 µM; in the data set with A549, 2.45 µM; in the data set on THLE-2, 3.94 µM.
